Patent publication US20180111893A1, “POLYCATIONIC AMPHIPHILES AND POLYMERS THEREOF AS ANTIMICROBIAL AGENTS AND METHODS USING SAME” (Temple University-Of The Commonwealth System of Higher …, priority 2015, published 2018)

How the values were obtained:
CA-MRSA strain = experiment: Reactivation assay (sub-MIC co-dosing); type: cell-based, Staphylococcus aureus; settings: sub-MIC concentrations of TET-14,0,0, varying concentrations of triscationic variant
From the text: It was hypothesized that by using a reactivation assay (essentially the inverse of a potentiation assay), the role QacR plays in monoQAC resistance could be better understood. […] Other possible hypotheses include that QacR may be activated by our monoQACs but that QacA cannot efflux the trisQACs or that the resistance mechanism implicated for TET-14,0,0 may be orthogonal to the Qac system.

Pseudomonas aeruginosa = tested on: Pseudomonas aeruginosa; set-up: MIC against Pseudomonas aeruginosa: unit not given here; settings: cited from earlier work
[1] = tested on: two MRSA strains-USA300-0114 and ATCC33591; experiment: MIC against MRSA strains compared to MSSA; type: cell-based, Staphylococcus aureus; settings: natural product-derived QACs; for susceptibility to QAC/MRSA resistance: MSSA vs MRSA, in words
Description: (§1) Compounds were serially diluted two-fold from a 10% DMSO/aqueous stock solution to yield twelve test concentrations. Overnight S. aureus, E. faecalis, E. coli, P. aeruginosa, CA-MRSA, and HA-MRSA cultures diluted to ca. 10^6 cfu/mL in Mueller-Hinton media and 100 μL were inoculated into each well of a U-bottom 96-well plate (BD Biosciences, BD351177) containing 100 μL of compound solution. Plates were incubated statically at 37° C. for 72 hours upon which time wells were evaluated visually for bacterial growth. The MIC was determined as the lowest concentration of compound resulting in no bacterial growth visible to the naked eye, based on the majority of three independent experiments. Positive and negative DMSO/aqueous solution and media controls were conducted for each trial. See Peng et al., 2011, Chem. Comm. 47:4896-4898.
MIC values against Gram-positive Staphylococcus aureus (methicillin-susceptible Staphyloccocus aureus (MSSA) and two MRSA strains-USA300-0114 and ATCC33591) and Enterococcus faecalis and Gram-negative Escherichia coli and P. aeruginosa were determined according to standard, and results appear in Table 4.

[2] = tested on: Staphylococcus aureus (SA; MSSA SH1000); experiment: Minimum inhibitory concentration (MIC); type: cell-based
Description: (§2) As used herein, the term “minimum inhibitory concentration (MIC)” refers to the lowest concentration of an antimicrobial agent that will inhibit the visible growth of a microorganism after overnight incubation. MIC values against bacteria, for example, the Gram-positive Staphylococcus aureus and Enterococcus faecalis and the Gram-negative Escherichia coli and Pseudomonas aeruginosa were determined by standard methods. See also P. A. Wayne, Methods for Dilution Antimicrobial Tests for Bacteria that Grow Aerobically; Approved Standard, Ninth Edition, 2012, CLSI Document M07-A9, Vol. 32 No. 2, which is incorporated by reference herein in its entirety.
as §1
as §1, with “trial.” for “trial. See Peng et al., 2011, Chem. Comm. 47:4896-4898.”

[3] = tested on: community-acquired methicillin-resistant Staphylococcus aureus CA-MRSA (USA300-0114); experiment: Minimum inhibitory concentration (MIC); type: cell-based
Description: as §2, §1
as §1, with “trial.” for “trial. See Peng et al., 2011, Chem. Comm. 47:4896-4898.”

[4] = tested on: Staphylococcus aureus (MSSA) biofilms; experiment: Minimum biofilm eradication concentration (MBEC), regrowth assay; type: cell-based; settings: Table 1
Description: (§3) A regrowth assay was used to establish the MBEC of a compound to evaluate the antibiofilm activity. See also H. Ceri, M. Olson, D. Morck, D. Storey, R. Read, A. Buret, B. Olson, Methods Enzymol. 2001, 337, 377, which is incorporated by reference herein in its entirety.
(§4) To each well of a flat-bottomed 96-well plate (Corning 3370), 8 μL of overnight bacterial culture was brought to a volume of 200 μL with fresh media (BHI for MSSA and MRSA). Plates were incubated statically for 24 hours at 37° C. to establish biofilms. After 24 hours, the wells were carefully emptied by inverting the plate and gently shaking. A pre-mixed solution of media and compound stock solution was added to each well and plates were incubated at 37° C. 16 hours after pre-established biofilms were treated with compound, the media from each well was removed, biofilms were washed three times with 200 μL PBS to remove planktonic cells, and biofilms were incubated overnight at 37° C. in 200 μL of fresh media to allow any viable cells to continue growing. The wells were then vigorously pipetted to resuspend the biofilm cells and the OD at 595 nm was measured using a plate reader (POLARstar Omega, BMG Labtech). Biofilms reaching a final OD of less than 0.1 were considered eradicated and the lowest concentration of antibiotic corresponded to the MBEC. Four replicates were completed for each concentration of compound as well as positive and negative controls.

[5] = tested on: Enterococcus faecalis biofilms; experiment: as above; type: cell-based; settings: Table 1
From the text: as §3

red blood cells = type: cell-based, sheep
Description: To date, synthesized compounds have been evaluated against planktonic bacteria (E. coli, S. aureus, P. aeruginosa, E. facaelis) and bacterial biofilms (E. facaelis, S. aureus, MRSA); new compounds are similarly assessed. All compounds are also evaluated via a hemolysis assay to assess their ability to lyse red blood cells (RBC) (Nagamune et al., 2000, Toxicology in Vitro 14:139-147). The assay is conducted following a known protocol to determine the concentration of compound that causes 20% of RBCs to be lysed. […] All compounds are benchmarked against three commercial antiseptics—benzalkonium chloride, DDAC, and CHX (FIG. 1).
Hemolysis assays were performed according to a known method (Peng et al., 2011, Chem. Comm. 47:4896-4898). Defibrinated sheep blood was purchased from Hemostat Labs (DSB030). Compounds representative of each class were serially diluted in sterile PBS from stock solutions and incubated with resuspended blood cells. The OD of the final suspensions were measured directly using plate reader. TritonX (1% by volume) served as a positive control (100% lysis marker) and sterile PBS served as a negative control (0% lysis marker).

[6] = tested on: hospital-acquired methicillin-resistant Staphylococcus aureus HA-MRSA (ATCC 33591); experiment: Minimum inhibitory concentration (MIC); type: cell-based; settings: Table 6
Description: as §2, §1
as §1, with “trial.” for “trial. See Peng et al., 2011, Chem. Comm. 47:4896-4898.”

[7] = tested on: Enterococcus faecalis (OG1RF); experiment: Minimum inhibitory concentration (MIC); type: cell-based
Description: as §2, §1
as §1, with “trial.” for “trial. See Peng et al., 2011, Chem. Comm. 47:4896-4898.”

[8] = tested on: Escherichia coli (MC4100); experiment: Minimum inhibitory concentration (MIC); type: cell-based
Description: as §2, §1
as §1, with “trial.” for “trial. See Peng et al., 2011, Chem. Comm. 47:4896-4898.”

[9] = tested on: Pseudomonas aeruginosa (PAO1); experiment: Minimum inhibitory concentration (MIC); type: cell-based
Description: as §2, §1
as §1, with “trial.” for “trial. See Peng et al., 2011, Chem. Comm. 47:4896-4898.”

[10] = tested on: MRSA biofilms (S. aureus USA300-0114); experiment: Minimum biofilm eradication concentration (MBEC), regrowth assay; type: cell-based, Staphylococcus aureus; settings: Table 2; pre-formed MRSA biofilms
Description: as §3, §4

[11] = tested on: six bacteria (SA, HA-MRSA, CA-MRSA, EF, EC, PA); experiment: MIC against the panel of bacteria tested; type: cell-based; settings: quinine- and nicotine-derived QACs; in words
Description: as §2
The complete set of MIC values against six bacteria [Staphylococcus aureus (SA), hospital-acquired methicillin-resistant SA (HA-MRSA), community-acquired methicillin-resistant SA (CA-MRSA), Enterococcus faecalis (EF), Escherichia coli (EC), and Pseudomonas aeruginosa (PA)] is presented in Table 3, wherein multiQACs are grouped with their monoQAC counterparts. The dye-based QACs with greatest inhibition of the complete range of Gram-positive and Gram-negative bacteria featured bis- or tris-quaternization, with the optimal alkyl total ranging from 17-24 carbons. For example, comparison of two biscationic series -LMG-n,1 and LMG-n,n—evaluates the effect of total alkyl chain length in retention of efficacy against the more challenging CA-MRSA and the Gram-negative strains EC and PA.
as §1

[12] = tested on: methicillin-resistant Staphyloccocus aureus (MRSA); settings: at 350 μm, cited from earlier work

## CCCCCCCCCCCCCC[N+](CC)(CC)c1ccc(N(c2ccc([N+](C)(CC)CC)cc2)c2ccc([N+](C)(CC)CC)cc2)cc1 [TET-14,1,1]
CA-MRSA strain
  modification of MIC on co-dosing with sub-MIC TET-14,0,0: did not result in any significant modification

## COc1ccc2cc3[n+](cc2c1OC)CCc1cc2c(cc1-3)OCO2 [Berberine, berberine]
Pseudomonas aeruginosa; in words, literature
  activity against P. aeruginosa: micromolar activity

## C=CC1C[N+]2(CCCCCCCCCCCCCCCCCC)CCC1C[C@H]2[C@@H](O)c1ccnc2ccc(OC)cc12.[Br-] (stereo partly shown) [Q-18,0]
[1]
  increase in MIC of MRSA as compared to MSSA: 32 fold

## benzalkonium chloride [reference compound]
[2]; Table 1
  MIC v SA: 8 µM
[2]; Table 2, non-resistant S. aureus strain (SH1000)
  MIC v SA: 8 µM
[2]; Table 6
  MIC SA: 8 µM
[3]; Table 2, qac-bearing MRSA strain USA300-0114
  MIC v MRSA: 32 µM
[3]; Table 6
  MIC CA-MRSA: 8 µM
[4]
  MBEC v SA: 200 µM
[5]
  MBEC v EF: 200 µM
Red blood cells
  Lysis20: 63 µM
  TI MRSA: 2
  TI SA: 8
[6]
  MIC HA-MRSA: 32 µM
[7]; Table 1
  MIC v EF: 8 µM
[7]; Table 6
  MIC EF: 8 µM
[8]; Table 1
  MIC v EC: 32 µM
[8]; Table 6
  MIC EC: 32 µM
[9]; Table 1
  MIC v PA: 63 µM
[9]; Table 6
  MIC PA: 63 µM
[10]
  MBEC v MRSA: >200 µM

## C=CC1C[N+]2(CCCCCCCCCCCCCCCC)CCC1C[C@H]2[C@@H](O)c1cc[n+](C)c2ccc(OC)cc12.[Br-].[I-] (stereo partly shown) [Q-16,1]
[1]
  susceptibility to QAC/MRSA resistance: unaffected by QAC resistance
[11]
  antimicrobial activity: single-digit micromolar activity

## Latifolian A
Pseudomonas aeruginosa; Martin et al., 2011
  MIC against Pseudomonas aeruginosa: 35
[12]
  inhibition of MRSA: 55%

## C=CC1C[N+]2(CCCCCCCCCCCCCCCCCC)CCC1C[C@H]2[C@@H](O)c1cc[n+](C)c2ccc(OC)cc12.[Br-].[I-] (stereo partly shown) [Q-18,1]
[1]
  susceptibility to QAC/MRSA resistance: unaffected by QAC resistance
[11]
  antimicrobial activity: single-digit micromolar activity

## COc1cc2c(cc1O)[C@@H](Cc1ccc(O)cc1)[N+](C)(C)CC2 [magnocuraine, magnocurarine]
[12]; in words
  effectiveness against MRSA: no effectiveness
